# Measured values reported in patent publication US9108983B2, “Pyrrole compounds, a process for their preparation and pharmaceutical compositions containing them” (LES LABORATOIRES SERVIER, priority 2013, dated 2015).
# Where a name gives a salt, the structure may show the parent alone. Read-outs that look alike come from different tables or passages of the source.
# Tests used:
# [1] = biological target: Bcl-2 protein (histag-Bcl-2, UniProtKB P10415) (Homo sapiens (Human), UniProt P10415); assay: Inhibition of Bcl-2 by the fluorescence polarisation technique; type: binding; conditions: incubation for 2 hours, read-out: IC50 (nM) Bcl-2 FP
# Chain of Bcl-2 protein (P10415 whole entry): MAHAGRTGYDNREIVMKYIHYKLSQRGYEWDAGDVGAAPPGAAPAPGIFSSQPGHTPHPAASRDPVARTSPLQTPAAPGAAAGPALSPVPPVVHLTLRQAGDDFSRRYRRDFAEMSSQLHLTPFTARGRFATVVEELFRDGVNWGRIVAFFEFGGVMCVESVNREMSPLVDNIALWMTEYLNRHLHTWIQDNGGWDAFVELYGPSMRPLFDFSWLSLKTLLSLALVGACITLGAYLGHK
# Procedure, shortened: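 In pH 7.4 buffer (Hepes 10 mM, NaCl 150 mM, Tween20 0.05%), test compounds at increasing concentrations competed with a fluorescein peptide (1.00×10^−8 M final) for histag-Bcl-2 (2.50×10^−8 M final). Readout was fluorescence polarisation after a 2 h incubation.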
# [2] = tested on: RS4;11 leukaemia tumour line; assay: In vitro cytotoxicity (Microculture Tetrazolium Assay); type: cell-based; conditions: RS4;11 cells, exposed for 48 hours, cell viability, read-out: IC50 (nM) MTT RS4;11
# Experimental: The cytotoxicity studies were carried out on the RS4;11 leukaemia tumour line.
# The cells are distributed onto microplates and exposed to the test compounds for 48 hours.
# The cell viability is then quantified by a colorimetric assay, the Microculture Tetrazolium Assay (Cancer Res., 1987, 47, 939-942).
SMILES,IC50 [1] [nM],"IC50 ([2]; Homo sapiens, RS4-11, 48 h) [nM]",IC50 ([2]; Homo sapiens) [nM],IC50 ([2]; hydrochloride) [nM]
"Cc1c(C(=O)N(c2ccc(O)cc2)c2cc3ccn(C)c3cn2)cc(-c2cc3c(cc2C(=O)N2Cc4ccccc4C[C@H]2CN2CCOCC2)OCO3)n1C [Example 387, N-(4-Hydroxyphenyl)-1,2-dimethyl-N-(1-methyl-1H-pyrrolo[2,3-c]pyridin-5-yl)-5-(6-{[(3S)-3-(morpholin-4-ylmethyl)-3,4-dihydroisoquinolin-2(1H)-yl]carbonyl}-1,3-benzodioxol-5-yl)-1H-pyrrole-3-carboxamide hydrochloride]",20.6,243,–,–
"COc1ccc(-c2cc(C(=O)N(c3ccc(O)cc3)c3cnn(C)c3)c(C)n2C)c(C(=O)N2Cc3ccccc3C[C@H]2CN2CCOCC2)c1 [Example 418, N-(4-Hydroxyphenyl)-5-(4-methoxy-2-{[(3S)-3-(morpholin-4-ylmethyl)-3,4-dihydroisoquinolin-2(1H)-yl]carbonyl}phenyl)-1,2-dimethyl-N-(1-methyl-1H-pyrazol-4-yl)-1H-pyrrole-3-carboxamide hydrochloride]",10.1,159,–,–
"Cc1c(C(=O)N(c2ccc(O)cc2)c2ccc(C#N)s2)cc(-c2cc(Cl)ccc2C(=O)N2Cc3ccccc3C[C@H]2CN2CCOCC2)n1C [Example 436, 5-(5-Chloro-2-{[(3S)-3-(morpholin-4-ylmethyl)-3,4-dihydroisoquinolin-2(1H)-yl]carbonyl}phenyl)-N-(5-cyanothiophen-2-yl)-N-(4-hydroxyphenyl)-1,2-dimethyl-1H-pyrrole-3-carboxamide hydrochloride]",49.1,338,–,–
"COc1cc(C(=O)N2Cc3ccccc3C[C@H]2CN2CCOCC2)c(-c2cc(C(=O)N(c3ccc(O)cc3)c3cc(C#N)ccn3)c(C)n2C)cc1F [Example 435, N-(4-Cyanopyridin-2-yl)-5-(5-fluoro-4-methoxy-2-{[(3S)-3-(morpholin-4-ylmethyl)-3,4-dihydroisoquinolin-2(1H)-yl]carbonyl}phenyl)-N-(4-hydroxyphenyl)-1,2-dimethyl-1H-pyrrole-3-carboxamide hydrochloride]",14.9,441,–,–
"Cc1c(C(=O)N(c2ccccc2)c2ccc(O)cc2)cc(-c2cc(Cl)ccc2C(=O)N2CCc3ccccc3C2)n1C [Example 467, 5-(5-Chloro-2-{[3,4-dihydroisoquinolin-2(1H)-yl]carbonyl}phenyl)-N-(4-hydroxyphenyl)-1,2-dimethyl-N-phenyl-1H-pyrrole-3-carboxamide]",19.2,188,–,–
"Cc1ccc(OC(=O)NCc2ccc(-c3cc(C(=O)N(C)c4ccc(O)cc4)c(C)n3C)c(C(=O)N3Cc4ccccc4C[C@H]3C)c2)cc1 [Example 66, 4-Methylphenyl (4-{4-[(4-hydroxyphenyl)(methyl)carbamoyl]-1,5-dimethyl-1H-pyrrol-2-yl}-3-{[(3R)-3-methyl-3,4-dihydroisoquinolin-2(1H)-yl]-carbonyl}benzyl)carbamate]",16.9,–,241,–
"Cc1c(C(=O)N(c2ccccc2)c2ccc(O)cc2)cc(-c2cc(F)ccc2C(=O)N2Cc3ccccc3C[C@H]2CN2CCOCC2)n1C [Example 10, 5-(5-Fluoro-2-{[(3S)-3-(morpholin-4-ylmethyl)-3,4-dihydroisoquinolin-2(1H)-yl]carbonyl}phenyl)-N-(4-hydroxyphenyl)-1,2-dimethyl-N-phenyl-1H-pyrrole-3-carboxamide hydrochloride]",16.2,205,–,–
"Cc1c(C(=O)N(c2ccccc2)c2cnc3c(ccn3C)c2)cc(-c2cc(Cl)ccc2C(=O)N2Cc3ccccc3C[C@H]2CN2CCOCC2)n1C [Example 390, 5-(5-Chloro-2-{[(3S)-3-(morpholin-4-ylmethyl)-3,4-dihydroisoquinolin-2(1H)-yl]carbonyl}phenyl)-1,2-dimethyl-N-(1-methyl-1H-pyrrolo[2,3-b]pyridin-5-yl)-N-phenyl-1H-pyrrole-3-carboxamide]",21.2,173,–,–
"Cc1c(C(=O)N(c2ccc(O)cc2)c2cnn(C3CCOC3)c2)cc(-c2cc(F)ccc2C(=O)N2Cc3ccccc3C[C@H]2CN2CCOCC2)n1C (single isomer, unassigned) [Example 403, 5-(5-Fluoro-2-{[(3S)-3-(morpholin-4-ylmethyl)-3,4-dihydroisoquinolin-2(1H)-yl]carbonyl}phenyl)-N-(4-hydroxyphenyl)-1,2-dimethyl-N-{1-[(3R or S)-tetrahydrofuran-3-yl]-1H-pyrazol-4-yl}-1H-pyrrole-3-carboxamide hydrochloride]",24.2,–,–,289
"Cc1c(C(=O)N(C)c2ccc(O)cc2)cc(-c2cc(CNC(=O)COc3ccccc3)ccc2C(=O)N2Cc3ccccc3C[C@H]2C)n1C [Example 53, N-(4-Hydroxyphenyl)-N,1,2-trimethyl-5-(2-{[(3R)-3-methyl-3,4-dihydroisoquinolin-2(1H)-yl]carbonyl}-5-{[(phenoxyacetyl)amino]methyl}phenyl)-1H-pyrrole-3-carboxamide]",43.5,293,–,–

# These reach a lower IC50 [1]. Values come first.
IC50 [1] [nM],SMILES,"IC50 ([2]; Homo sapiens, RS4-11, 48 h) [nM]",IC50 ([2]; Homo sapiens) [nM],IC50 ([2]; hydrochloride) [nM]
7.5,"Cc1c(C(=O)N(c2ccncc2)c2ccc(O)cc2)cc(-c2cc(Cl)ccc2C(=O)N2Cc3ccccc3C[C@H]2C)n1C [Example 28, 5-(5-Chloro-2-{[(3R)-3-methyl-3,4-dihydroisoquinolin-2(1H)-yl]carbonyl}phenyl)-N-(4-hydroxyphenyl)-1,2-dimethyl-N-(pyridin-4-yl)-1H-pyrrole-3-carboxamide hydrochloride]",95.3,–,–
6.3,"Cc1c(C(=O)N(c2ccc(O)cc2)c2cnn(C3CC3)c2)cc(-c2cc(F)ccc2C(=O)N2Cc3ccccc3C[C@H]2CN2CCOCC2)n1C [Example 214, N-(1-Cyclopropyl-1H-pyrazol-4-yl)-5-(5-fluoro-2-{[(3S)-3-(morpholin-4-ylmethyl)-3,4-dihydroisoquinolin-2(1H)-yl]carbonyl}phenyl)-N-(4-hydroxyphenyl)-1,2-dimethyl-1H-pyrrole-3-carboxamide hydrochloride]",236,–,–
5.1,"Cc1c(C(=O)N(c2ccccc2)c2ccc(O)cc2)cc(-c2cc3c(cc2C(=O)N2Cc4ccccc4C[C@H]2C)OCO3)n1C [Example 43, N-(4-Hydroxyphenyl)-1,2-dimethyl-5-(6-{[(3R)-3-methyl-3,4-dihydroisoquinolin-2(1H)-yl]carbonyl}-1,3-benzodioxol-5-yl)-N-phenyl-1H-pyrrole-3-carboxamide]",28.9,–,–
5,"Cc1c(C(=O)N(c2ccc(O)cc2)c2cnn(C)c2)cc(-c2cc(Cl)ccc2C(=O)N2Cc3ccccc3C[C@H]2C)n1C [Example 1, 5-(5-Chloro-2-{[(3R)-3-methyl-3,4-dihydroisoquinolin-2(1H)-yl]carbonyl}phenyl)-N-(4-hydroxyphenyl)-1,2-dimethyl-N-(1-methyl-1H-pyrazol-4-yl)-1H-pyrrole-3-carboxamide]",33.6,–,–
2.8,"Cc1c(C(=O)N(c2ccc(O)cc2)c2cnn(C3CCOC3)c2)cc(-c2cc(Cl)ccc2C(=O)N2Cc3ccccc3C[C@H]2CCCN2CCOCC2)n1C (stereo partly drawn) [Example 460, 5-(5-Chloro-2-{[(3R)-3-[3-(morpholin-4-yl)propyl]-3,4-dihydroisoquinolin-2(1H)-yl]carbonyl}phenyl)-N-(4-hydroxyphenyl)-1,2-dimethyl-N-[1-(tetrahydrofuran-3-yl)-1H-pyrazol-4-yl]-1H-pyrrole-3-carboxamide hydrochloride]",22.9,–,–
